Laboratory results as given in US20050209278A1, “Piperidinyl- and piperazinyl-sulfonylmethyl hydroxamic acids and their use as protease inhibitors” (priority 2002, published 2005).
Where a name gives a salt, the structure may show the parent alone. Read-outs that look alike come from different tables or passages of the source.

Assays:
Type in all cases: biochemical
MMP-2 = biological target: T1, MMP-2 (Homo sapiens, UniProt P08253); test: MMP-2 inhibition (in vitro Ki)
T1 construct: made in house; host or cells: MMP-2-transfected p2AHT2 cells
T1 sequence (P08253 110-660): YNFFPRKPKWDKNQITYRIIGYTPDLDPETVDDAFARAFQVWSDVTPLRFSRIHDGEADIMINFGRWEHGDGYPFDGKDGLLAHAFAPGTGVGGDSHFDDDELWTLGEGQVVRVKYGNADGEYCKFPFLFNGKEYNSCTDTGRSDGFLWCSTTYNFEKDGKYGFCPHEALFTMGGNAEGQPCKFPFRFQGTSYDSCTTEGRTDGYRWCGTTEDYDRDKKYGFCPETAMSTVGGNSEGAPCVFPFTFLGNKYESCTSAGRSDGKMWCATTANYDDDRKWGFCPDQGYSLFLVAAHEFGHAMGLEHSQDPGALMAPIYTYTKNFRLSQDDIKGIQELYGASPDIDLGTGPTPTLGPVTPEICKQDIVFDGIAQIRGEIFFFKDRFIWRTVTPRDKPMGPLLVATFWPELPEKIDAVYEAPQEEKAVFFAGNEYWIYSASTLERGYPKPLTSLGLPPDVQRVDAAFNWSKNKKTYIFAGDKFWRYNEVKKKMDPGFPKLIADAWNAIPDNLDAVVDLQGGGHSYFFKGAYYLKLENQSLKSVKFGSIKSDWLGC

MMP-13 = biological target: T2, MMP-13 (Homo sapiens, UniProt P45452); test: MMP-13 inhibition (in vitro Ki)
T2 construct: made in house; host or cells: baculovirus / insect cells

MMP-14 = biological target: T3, MMP-14 (Homo sapiens, UniProt P50281); test: MMP-14 inhibition (in vitro Ki)
T3 construct: The catalytic domain enzyme was expressed in E. coli inclusion bodies, solubilized in urea; made in house

MMP-9 = biological target: T4, MMP-9 (Homo sapiens, UniProt P14780); test: MMP-9 inhibition (in vitro Ki)
T4 construct: made in house; host or cells: MMP-9-transfected HT1080 cells (spent media)

MMP-1 = biological target: T5, MMP-1 (Homo sapiens, UniProt P03956); test: MMP-1 inhibition (in vitro Ki)
T5 construct: made in house; host or cells: MMP-1-transfected HT-1080 cells (spent media)
T5 sequence (P03956 100-469): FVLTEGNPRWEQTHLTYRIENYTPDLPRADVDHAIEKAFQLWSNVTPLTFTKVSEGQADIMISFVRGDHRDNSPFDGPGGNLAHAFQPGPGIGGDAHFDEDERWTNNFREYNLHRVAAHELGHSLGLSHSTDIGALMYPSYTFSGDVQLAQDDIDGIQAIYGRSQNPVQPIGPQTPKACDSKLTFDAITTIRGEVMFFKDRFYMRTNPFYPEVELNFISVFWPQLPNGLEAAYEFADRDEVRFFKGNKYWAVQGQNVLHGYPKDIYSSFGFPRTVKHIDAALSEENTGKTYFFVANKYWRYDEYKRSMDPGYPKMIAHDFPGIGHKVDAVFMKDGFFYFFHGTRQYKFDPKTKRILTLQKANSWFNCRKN

[1] = Table 9, read-out: MMP-2 Ki (IC-50)
[2] = Table 9, read-out: MMP-13 Ki (IC-50)
[3] = Table 9, read-out: MMP-14 Ki (IC-50)
[4] = Table 9, read-out: MMP-9 Ki (IC-50)
[5] = Table 9, read-out: MMP-1 Ki (IC-50)

T4 sequence (P14780 107-707 limits assumed): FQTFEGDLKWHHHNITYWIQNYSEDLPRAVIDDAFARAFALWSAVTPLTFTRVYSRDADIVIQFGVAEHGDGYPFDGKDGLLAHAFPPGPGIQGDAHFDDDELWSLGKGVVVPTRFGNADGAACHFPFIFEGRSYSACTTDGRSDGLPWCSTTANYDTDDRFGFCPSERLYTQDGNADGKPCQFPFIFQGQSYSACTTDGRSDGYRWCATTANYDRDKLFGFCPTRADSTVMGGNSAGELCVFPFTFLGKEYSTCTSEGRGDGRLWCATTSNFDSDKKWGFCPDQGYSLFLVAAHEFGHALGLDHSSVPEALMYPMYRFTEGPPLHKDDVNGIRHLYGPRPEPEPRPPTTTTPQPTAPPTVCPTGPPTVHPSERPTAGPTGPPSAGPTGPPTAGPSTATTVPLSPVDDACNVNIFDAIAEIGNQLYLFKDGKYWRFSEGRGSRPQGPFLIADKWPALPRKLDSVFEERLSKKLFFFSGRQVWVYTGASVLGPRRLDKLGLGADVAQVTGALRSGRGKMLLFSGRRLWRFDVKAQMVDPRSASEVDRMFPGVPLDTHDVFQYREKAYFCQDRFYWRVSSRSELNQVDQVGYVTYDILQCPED

| Compound | Ki (MMP-2; [1]) [nM] | Ki (MMP-13; [2]) [nM] | Ki (MMP-14; [3]) [nM] | Ki (MMP-9; [4]) [nM] | Ki (MMP-1; [5]) [nM] | Ki (MMP-2; Table 8, read-out: MMP-2 Ki) [nM] | Ki (MMP-13; Table 8, read-out: MMP-13 Ki) [nM] | Ki (MMP-14; Table 8, read-out: MMP-14 Ki) [nM] | Ki (MMP-9; Table 8, read-out: MMP-9 Ki) [nM] | Ki (MMP-1; Table 8, read-out: MMP-1 Ki) [nM] |
| --- | --- | --- | --- | --- | --- | --- | --- | --- | --- | --- |
| CCN(C(=O)CCCC1CCN(S(=O)(=O)C2(C(=O)NO)CCOCC2)CC1)c1ccccc1 [Example A147] | 76.1 | 44.8 | > 10000 | 42.9 | > 10000 | – | – | – | – | – |
| O=C(NO)C1(S(=O)(=O)N2CCN(c3ccc(-c4ccsc4)c(F)c3)CC2)CCOCC1 [Example A205] | 0.33 | 0.93 | 297 | 1.16 | 3590 | – | – | – | – | – |
| O=C(NO)C1(S(=O)(=O)N2CCC(c3ccc(CCC(F)(F)C(F)(F)F)cn3)CC2)CCN(c2ccccc2)CC1 [Example A167] | 3.04 | 1.54 | > 10000 | 2.21 | > 10000 | – | – | – | – | – |
| O=C(NO)C1(S(=O)(=O)N2CCC(c3ccc(CCC(F)(F)F)cn3)CC2)CCCC1 [Example A105] | 0.52 | 0.23 | 1130 | 0.18 | 2170 | – | – | – | – | – |
| CN(C(=O)CCCCC1CCN(S(=O)(=O)C2(C(=O)NO)CCOCC2)CC1)c1ccc(OC(F)(F)F)cc1 [Example A163] | 225 | 2.53 | > 10000 | 1630 | 1490 | – | – | – | – | – |
| O=C(NO)C1(S(=O)(=O)N2CCC(c3ccc(CCC(F)F)cn3)CC2)CCOCC1 [Example A161] | 0.513 | 0.474 | 1670 | 0.223 | 2970 | – | – | – | – | – |
| CN(C(=O)CCCCC1CCN(S(=O)(=O)C2(C(=O)NO)CCOCC2)CC1)C1CCCCC1 [Example A96] | 240 | 1.1 | > 10000 | 726 | 1110 | – | – | – | – | – |
| O=C(/C=C/C=C/C1CCN(S(=O)(=O)C2(C(=O)NO)CCOCC2)CC1)N1Cc2ccccc2C1 [Example A82] | 1080 | 0.901 | > 10000 | 8280 | > 10000 | – | – | – | – | – |
| CCCCOCCOC1CCN(S(=O)(=O)C2(C(=O)NO)CCOCC2)CC1 [Example A36H] | – | – | – | – | – | 60.1 | 70.5 | > 10000 | 45.7 | > 10000 |
| CCCCOCCC1CCN(S(=O)(=O)C2(C(=O)NO)CCOCC2)CC1 [Example A44, 4-[4-(2-butoxy-ethyl)-piperidine-1-sulfonyl]-tetrahydro-pyran-4-carboxylic Acid Hydroxyamide] | – | – | – | – | – | 27.3 | 38.2 | > 10000 | 12.5 | > 10000 |
| CSCCOc1ccc(C2CCN(S(=O)(=O)C3(C(=O)NO)CCOCC3)CC2)nc1 [Example A191] | 0.31 | 0.13 | 470 | 0.27 | 1710 | – | – | – | – | – |
| O=C(NO)C1(S(=O)(=O)N2CCC(c3ccc(CCC4CCC4)cn3)CC2)CCOCC1 [Example A120] | 0.42 | 0.15 | 1280 | 0.16 | 4910 | – | – | – | – | – |
| CN(CC1CCCCC1)C(=O)CCCCC1CCN(S(=O)(=O)C2(C(=O)NO)CCOCC2)CC1 [Example A112] | 190 | 0.92 | > 10000 | 1820 | 708 | – | – | – | – | – |
| N#Cc1ccc(N2CCN(S(=O)(=O)C3(C(=O)NO)CCOCC3)CC2)cc1F [Example A180] | 2.35 | 2.1 | 1300 | 96.1 | 8890 | – | – | – | – | – |
| CC(F)(F)CCc1ccc(C2CCN(S(=O)(=O)C3(C(=O)NO)CCOCC3)CC2)nc1 [Example A63, 4-({4-[5-(3,3-difluorobutyl)pyridin-2-yl]piperidin-1-yl}sulfonyl)-N-hydroxytetrahydro-2H-pyran-4-carboxamide Hydrochloride] | – | – | – | – | – | 0.5 | 0.39 | 1840 | 0.22 | 4370 |
| O=C(CCCCC1CCN(S(=O)(=O)C2(C(=O)NO)CCOCC2)CC1)N1CCc2ccccc2C1 [Example A74] | 21.8 | 0.18 | 7960 | 65.8 | 512 | – | – | – | – | – |
| CC(F)(F)COc1ccc(C2CCN(S(=O)(=O)C3(C(=O)NO)CCOCC3)CC2)nc1 [Example A168] | 1.7 | 1.72 | 8570 | 1.5 | 2290 | – | – | – | – | – |
| O=C(NO)C1(S(=O)(=O)N2CCC(CCc3ccccc3)CC2)CCOCC1 [Example A185] | 1.1 | 0.95 | 42.7 | 1.69 | 1720 | – | – | – | – | – |
| O=C(NO)C1(S(=O)(=O)N2CCC(c3ccc(CCC4CC4)cn3)CC2)CCOCC1 [Example A123] | 0.58 | 0.43 | 1280 | 0.08 | 5160 | – | – | – | – | – |
| O=C(NO)C1(S(=O)(=O)N2CCC(OCCCCCC(F)(F)F)CC2)CCOCC1 [Example A49, 4-[4-(6,6,6-trifluoro-hexyloxy)-piperidine-1-sulfonyl]-tetrahydro-pyran-4-carboxylic Acid Hydroxyamide] | – | – | – | – | – | 3.81 | 2.87 | 6740 | 3.1 | > 10000 |
| O=C(/C=C/C=C/C1CCN(S(=O)(=O)C2(C(=O)NO)CCOCC2)CC1)N1CCN(c2ccccc2)CC1 [Example A76] | 356 | 6.79 | > 10000 | 1780 | > 10000 | – | – | – | – | – |
| O=C(NO)C(CC1CC1)(CC1CC1)S(=O)(=O)N1CCC(c2ccc(CCC(F)(F)F)cn2)CC1 [Example A84] | 2.88 | 1.82 | 5390 | 0.738 | 9770 | – | – | – | – | – |
| O=C(NO)C1(S(=O)(=O)N2CCC(c3ccc(CCC(F)(F)C(F)(F)F)cn3)CC2)CCCCC1 [Example A56, N-hydroxy-1-({4-[5-(3,3,4,4,4-pentafluorobutyl)pyridin-2-yl]piperidin-1-yl}sulfonyl)cyclohexanecarboxamide Hydrochloride] | – | – | – | – | – | 0.47 | 0.14 | 1010 | 0.15 | 2470 |
